Experimental data published in paper PMC4467398, “Preclinical antitumor activity of ST7612AA1: a new oral thiol-based histone deacetylase (HDAC) inhibitor” (Oncotarget, 2014).

Test system: DOHH2 and TMD8 DLBCL cells
Test: Gene expression profiling (HumanHT-12 v4 BeadChip, limma), ST7612AA1 300 nM 8 hrs vs DMSO
Assay type: cell-based, human
[1] = 300 nM, 8 hours, fold change > 1.5, adjusted p-value < 0.005

Q: With `CC(=O)SCCCCC[C@H](NC(=O)[C@H]1CCC(=O)N1)C(=O)Nc1ccccc1` [ST7612AA1] as the compound, how does the “log ratio YPEL5 (probe ILMN_1711069)” value (300 nM 8 hrs vs DMSO) read?
A: 6.99E-01

Q: What about the “log ratio YRDC (ILMN_2061732)” value (300 nM 8 hrs vs DMSO) of the same compound?
A: -8.81E-01

Q: What about the “log ratio ZBTB42 (ILMN_3239445)” value (300 nM 8 hrs vs DMSO) of the same compound?
A: 6.62E-01

Q: And the “log ratio ZDHHC8 (probe ILMN_1789492)” value (300 nM 8 hrs vs DMSO)?
A: 8.85E-01

Q: And the “log ratio ZFP161 (ILMN_1772522)” value (300 nM 8 hrs vs DMSO)?
A: -5.98E-01

Q: What about the “log ratio ZFX (ILMN_1687484)” value (300 nM 8 hrs vs DMSO) of the same compound?
A: -6.10E-01

Q: And the “log ratio ZMAT3 (ILMN_1654262)” value (300 nM 8 hrs vs DMSO)?
A: 5.95E-01

Q: And the “log ratio ZMYND11 (ILMN_1754234)” value (300 nM 8 hrs vs DMSO)?
A: -1.27E+00

Q: What about the “log ratio ZNF385A (ILMN_1786722)” value (300 nM 8 hrs vs DMSO) of the same compound?
A: 6.67E-01

Q: What about the “log ratio ZNF532 (ILMN_1731358)” value (300 nM 8 hrs vs DMSO) of the same compound?
A: -8.77E-01

Q: What about the “log ratio ZNF689 (ILMN_1759008)” value (300 nM 8 hrs vs DMSO) of the same compound?
A: -8.10E-01

Q: And the “log ratio ZNF692 (ILMN_1800750)” value (300 nM 8 hrs vs DMSO)?
A: -5.98E-01

Q: And the “log ratio ZNF775 (probe ILMN_1691702)” value (300 nM 8 hrs vs DMSO)?
A: 7.39E-01

Q: What about the “log ratio ZNF791 (ILMN_1758105)” value (300 nM 8 hrs vs DMSO) of the same compound?
A: 6.65E-01

Q: And the “log ratio ZNHIT1 (ILMN_1741491)” value (300 nM 8 hrs vs DMSO)?
A: 6.13E-01

Q: And the “log ratio ZNRD1 (ILMN_1692486)” value (300 nM 8 hrs vs DMSO)?
A: -8.14E-01

Q: What about the “log ratio ZNRD1 (ILMN_2398587)” value (300 nM 8 hrs vs DMSO) of the same compound?
A: -8.04E-01

Q: What about the “log ratio ZSCAN16 (ILMN_1809566)” value (300 nM 8 hrs vs DMSO) of the same compound?
A: 6.84E-01

Q: And the “log ratio ZZZ3 (ILMN_1653618)” value (300 nM 8 hrs vs DMSO)?
A: -7.87E-01

Q: What about the “log ratio probe ILMN_1862217 (no symbol)” value (300 nM 8 hrs vs DMSO) of the same compound?
A: 6.82E-01

Q: What about the “log ratio probe ILMN_1865056 (no symbol)” value (300 nM 8 hrs vs DMSO) of the same compound?
A: 5.95E-01

Q: What about the “log ratio probe ILMN_1880086 (no symbol)” value (300 nM 8 hrs vs DMSO) of the same compound?
A: 6.47E-01

Q: What about the “log ratio probe ILMN_1886515 (no symbol given)” value (300 nM 8 hrs vs DMSO) of the same compound?
A: -8.79E-01

Q: And the “number of genes down-regulated” value [1]?
A: 563 genes

Q: What about the “number of genes up-regulated” value [1] of the same compound?
A: 674 genes

Q: What about the AveExpr.ST7612 (2000-08-31 ILMN_1776157) of the same compound?
A: 9.23E-01

Q: And the log ratio (2000-08-31 ILMN_1776157)?
A: 9.23E-01

Q: And the AveExpr.ST7612 (ABHD8 ILMN_1712707)?
A: 9.18E-01

Q: What about the log ratio (ABHD8 ILMN_1712707) of the same compound?
A: 9.18E-01

Q: What about the AveExpr.ST7612 (ACBD7 ILMN_1726388) of the same compound?
A: 1.07E+00

Q: What about the log ratio (ACBD7 ILMN_1726388) of the same compound?
A: 1.07E+00

Q: What about the AveExpr.ST7612 (ADRB2 ILMN_1695590) of the same compound?
A: 1.02E+00

Q: And the log ratio (ADRB2 ILMN_1695590)?
A: 1.02E+00

Q: And the AveExpr.ST7612 (ANG ILMN_1760727)?
A: 1.06E+00

Q: What about the log ratio (ANG ILMN_1760727) of the same compound?
A: 1.06E+00

Q: What about the AveExpr.ST7612 (ANKRD13A ILMN_1689908) of the same compound?
A: 1.03E+00

Q: And the log ratio (ANKRD13A ILMN_1689908)?
A: 1.03E+00

Q: And the AveExpr.ST7612 (ATP6V0D1 ILMN_1795826)?
A: 1.00E+00

Q: And the log ratio (ATP6V0D1 ILMN_1795826)?
A: 1.00E+00

Q: And the AveExpr.ST7612 (ATP6V1A ILMN_1711516)?
A: 9.54E-01

Q: And the log ratio (ATP6V1A ILMN_1711516)?
A: 9.54E-01

Q: What about the AveExpr.ST7612 (BAG3 ILMN_1659766) of the same compound?
A: 1.06E+00

Q: And the log ratio (BAG3 ILMN_1659766)?
A: 1.06E+00

Q: And the AveExpr.ST7612 (BLVRA ILMN_1691436)?
A: 1.07E+00

Q: What about the log ratio (BLVRA ILMN_1691436) of the same compound?
A: 1.07E+00

Q: What about the AveExpr.ST7612 (BMP6 ILMN_1747650) of the same compound?
A: 1.06E+00

Q: And the log ratio (BMP6 ILMN_1747650)?
A: 1.06E+00

Q: What about the AveExpr.ST7612 (C9orf95 ILMN_1674650) of the same compound?
A: 9.57E-01

Q: What about the log ratio (C9orf95 ILMN_1674650) of the same compound?
A: 9.57E-01

Q: What about the AveExpr.ST7612 (C16orf93 ILMN_2179726) of the same compound?
A: 9.06E-01

Q: What about the log ratio (C16orf93 ILMN_2179726) of the same compound?
A: 9.06E-01

Q: And the AveExpr.ST7612 (CA2 ILMN_1662795)?
A: 1.03E+00

Q: What about the log ratio (CA2 ILMN_1662795) of the same compound?
A: 1.03E+00

Q: What about the AveExpr.ST7612 (CBLB ILMN_1685580) of the same compound?
A: 9.03E-01

Q: And the log ratio (CBLB ILMN_1685580)?
A: 9.03E-01

Q: And the AveExpr.ST7612 (CLEC16A ILMN_1781752)?
A: 1.06E+00

Q: What about the log ratio (CLEC16A ILMN_1781752) of the same compound?
A: 1.06E+00

Q: What about the AveExpr.ST7612 (CPNE3 ILMN_1773576) of the same compound?
A: 9.17E-01

Q: And the log ratio (CPNE3 ILMN_1773576)?
A: 9.17E-01

Q: What about the AveExpr.ST7612 (CRIP2 ILMN_1694432) of the same compound?
A: 1.09E+00

Q: What about the log ratio (CRIP2 ILMN_1694432) of the same compound?
A: 1.09E+00

Q: And the AveExpr.ST7612 (DENND5A ILMN_1785356)?
A: 1.07E+00

Q: What about the log ratio (DENND5A ILMN_1785356) of the same compound?
A: 1.07E+00

Q: What about the AveExpr.ST7612 (DENND5A ILMN_3245413) of the same compound?
A: 1.02E+00

Q: And the log ratio (DENND5A ILMN_3245413)?
A: 1.02E+00

Q: And the AveExpr.ST7612 (DNMT3B ILMN_2328972)?
A: 1.03E+00

Q: What about the log ratio (DNMT3B ILMN_2328972) of the same compound?
A: 1.03E+00

Q: And the AveExpr.ST7612 (EFNA1 ILMN_2371055)?
A: 1.05E+00

Q: And the log ratio (EFNA1 ILMN_2371055)?
A: 1.05E+00

Q: What about the AveExpr.ST7612 (EXTL2 ILMN_1797950) of the same compound?
A: 1.08E+00

Q: And the log ratio (EXTL2 ILMN_1797950)?
A: 1.08E+00

Q: What about the AveExpr.ST7612 (FAM46C ILMN_1713266) of the same compound?
A: 1.07E+00

Q: What about the log ratio (FAM46C ILMN_1713266) of the same compound?
A: 1.07E+00

Q: And the AveExpr.ST7612 (FAM89B ILMN_1804117)?
A: 1.06E+00

Q: And the log ratio (FAM89B ILMN_1804117)?
A: 1.06E+00
